Laboratory results: BindingDB's records for patent US20240254093 (Heptares Therapeutics Limited, 2024)

Target: G-protein coupled receptor 35 (Homo sapiens, UniProt Q9HC97)
Assay: Human GPR35a Isoform Binding Assay
Experimental: Overexpression of Human GPR35a Baculovirus in HEK293f cells at a cell density of 2.5 106 cells/mL and a multiplicity of infection of 2.5 over 24 h in Pro293 (Lonza)+5% FBS, 1% Glutamax and 0.4% Pen/Strep. Cells harvested and centrifuged at 2500 RPM for 10 mins at 4 C. The supernatant was then poured off and the pellet stored at +-80 C. The pellet was defrosted and re-suspended in 15 mL of homogenising buffer (20 mM HEPES, 10 mM EDTA, pH 7.4). Then homogenised in mechanical homogeniser (VMR) for 10 seconds. The membrane was centrifuged in centrifuge tubes at 40,000 g for 15 mins at 4 C. The supernatant was poured away and re-suspended in 15 mL of homogenising buffer. Homogenised for 20 seconds. The membrane was centrifuged at 40,000 g for 45 mins at 4 C. The membrane was re-suspended in 3 mL of storage buffer (20 mM HEPES, 0.1 mM EDTA, pH 7.4) mixing well. The resulting membranes were then stored at +-80 . […] 0.1 uM FAC Lodoxamide was added in order to allow non-specific binding to be calculated. […] Plates were dried prior to 50 ul/well scintillant added, sealed and radioactivity measured using a MicroBeta analyser. IC50 values were derived from the inhibition curve and affinity constant (Ki) values were calculated using the Cheng-Prussoff equation, where; pKi=+-log 10 Ki.

G-protein coupled receptor 35, sequence (Q9HC97 whole entry, canonical isoform): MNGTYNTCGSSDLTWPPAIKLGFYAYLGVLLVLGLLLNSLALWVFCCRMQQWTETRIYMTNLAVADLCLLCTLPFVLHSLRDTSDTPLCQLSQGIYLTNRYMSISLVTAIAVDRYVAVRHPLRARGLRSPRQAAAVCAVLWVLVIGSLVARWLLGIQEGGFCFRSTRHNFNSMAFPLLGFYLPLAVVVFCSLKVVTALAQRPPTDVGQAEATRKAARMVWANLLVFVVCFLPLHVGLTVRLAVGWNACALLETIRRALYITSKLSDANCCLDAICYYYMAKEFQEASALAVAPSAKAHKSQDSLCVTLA

Compound	Ki
O=c1c(O)c(Nc2cccc(-c3nn[nH]n3)c2)c1=O [US20240254093, Example 1]	9.81 nM
O=c1c(O)c(Nc2cc(-c3ccccc3)cc(-c3nn[nH]n3)c2)c1=O [US20240254093, Example 3]	0.35 nM
